{"source": "patent US11969412B2", "about": "“Methods and compounds for the treatment or prevention of hypercytokinemia and severe influenza” (Poolbeg Pharma (UK) Limited, priority 2017, dated 2024)", "key": {"[1]": {"tested_on": "immune cells (PBMCs plus granulocytes stimulated with A549 viral soup)", "experiment": "cells", "type": "cell-based, human"}, "[2]": {"tested_on": "p38MAPK", "experiment": "Western blotting of p38MAPK and HSP27 phosphorylation in A549 cells after A549 viral soup", "type": "cell-based, human", "conditions": "western blot", "protocol": "In vitro data were generated from A549 cells to test the effect of A549 viral soup application on p38 activation as measured by western blotting of the phosphorylation status of p38MAPK itself and downstream signalling target, HSP27. For western blotting confluent cells were washed in PBS and lysed in RIPA with protease inhibitor (Sigma-P8340), phosphatase inhibitor cocktails 2 and 3 (Sigma P5726 and P0044) and phosphatase inhibitors Na3VO4 and NaF on ice. Protein concentrations were determined using the Pierce BCA Protein Assay Kit and equal concentrations of each sample created in 4× Laemmli sample buffer (BIO-RAD 161-0747) with 2-mercaptoethanol. Samples were run on a 12% gel and then transferred on to nitrocellulose. Membranes were blocked using 5% milk powder, then hybridised with p38 MAPK rabbit antibody (Cell Signalling Technologies, cat. no. 9212S) and phosphorylated p38 MAPK rabbit antibody (Cell Signalling Technologies, cat. no. 9211S), or HSP27 antibody (Cell signalling Technologies, cat. no. 2402) and phospho-HSP27 antibody (Cell signalling Technologies, cat. no. 9709). Secondary antibodies were anti-rabbit HRP (Cell signalling Technologies catalogue no. CS7074P2) and anti-mouse HRP (Cell signalling, catalogue no. 7076S), respectively. Membranes were stripped for re-probing using Restore™ PLUS Western Blot Stripping Buffer (Life technologies #46430). […]"}, "[3]": {"tested_on": "p38MAPK", "experiment": "Western blotting of HSP27 phosphorylation in HUVEC cells after HBEC viral soup", "type": "cell-based, human", "conditions": "pre-incubation, western blot", "quoted_text": "For western blotting confluent cells were washed in PBS and lysed in RIPA with protease inhibitor (Sigma-P8340), phosphatase inhibitor cocktails 2 and 3 (Sigma P5726 and P0044) and phosphatase inhibitors Na3VO4 and NaF on ice. […] The membranes were treated with Amersham ECL Prime Western Blotting Detection Reagent (GE/Amersham #RPN2232) and imaged using ChemiDoc™ Touch Imaging System (BIORAD). Analysis was performed using the Image Lab software.\nIn vitro data were generated from HUVEC cells to test the effect of HBEC viral soup application on p38 activation as measured by western blotting of the phosphorylation status of the p38MAPK downstream signalling target, HSP27."}, "[4]": {"tested_on": "p38MAPK", "experiment": "Western blotting of HSP27 phosphorylation in immune cells (PBMCs) after A549 viral soup", "type": "cell-based, human", "conditions": "pre-incubation, western blot"}, "[5]": {"tested_on": "immune cells (PBMCs)", "type": "cell-based, human"}, "[6]": {"tested_on": "influenza virus", "conditions": "cited from earlier work; for survival rate at Day 20 of infection: controls 14%"}, "[7]": {"tested_on": "endothelial cells (HUVECs)", "experiment": "cells", "type": "cell-based, human"}, "[8]": {"tested_on": "HBEC cells", "experiment": "Inflammatory mediator production in HBEC cells after HBEC viral soup (MSD analysis)", "type": "cell-based, human", "conditions": "HBECs treated prior to HBEC viral soup"}, "[9]": {"conditions": "Homo sapiens, A549, read-out: IC50 IL1B"}, "[10]": {"conditions": "Homo sapiens, A549, read-out: IC50 IL6"}, "[11]": {"conditions": "Homo sapiens, A549, read-out: IC50 IL8"}, "[12]": {"conditions": "Homo sapiens, A549, read-out: IC50 TNFa"}, "[13]": {"conditions": "Homo sapiens, HUVEC, read-out: IC50 IL10"}}, "note": "pIC50: −log10 of the molar value. Like-named read-outs stand apart in the source and are kept apart here."}
{"compound": "CC[C@H]1OC(=O)[C@H](C)[C@@H](O[C@H]2C[C@@](C)(OC)[C@@H](O)[C@H](C)O2)[C@H](C)[C@@H](O[C@@H]2O[C@H](C)C[C@H](N(C)C)[C@H]2O)[C@](C)(O)C[C@@H](C)CN(C)[C@H](C)[C@@H](O)[C@]1(C)O", "note": "[Azithromycin]", "values": [{"measurement": "iMax IL1B", "setting": "[1]", "result": 50, "unit": "%"}, {"measurement": "iMax IL6", "setting": "[1]", "result": 45, "unit": "%"}, {"measurement": "iMax IL8", "setting": "[1]", "result": 46, "unit": "%"}, {"measurement": "iMax TNFa", "setting": "[1]", "result": 63, "unit": "%"}, {"measurement": "pIC50", "setting": "[1]; [9]", "result": 9.30}, {"measurement": "pIC50", "setting": "[1]; [10]", "result": 6.92}, {"measurement": "pIC50", "setting": "[1]; [11]", "result": 9.10}, {"measurement": "pIC50", "setting": "[1]; [12]", "result": 7.06}]}
{"compound": "Cc1cc(F)ccc1-c1nc(NC(CO)CO)nc2c1ccc(=O)n2-c1c(F)cccc1F", "note": "[Dilmapimod]", "values": [{"measurement": "induction of both p38MAPK and HSP27 phosphorylation", "setting": "[2]", "result": "dose dependently inhibit"}, {"measurement": "induction of HSP27 phosphorylation", "setting": "[3]", "result": "dose dependently inhibit"}, {"measurement": "induction of HSP27 phosphorylation", "setting": "[4]", "result": "dose dependently inhibit"}, {"measurement": "A549 viral soup induced release of TNFα, IL-1-β, IL-6 and CXCL8", "setting": "[5]", "result": "significantly attenuate"}]}
{"compound": "CC[C@H]1OC(=O)[C@H](C)[C@@H](O[C@H]2C[C@@](C)(OC)[C@@H](O)[C@H](C)O2)[C@H](C)[C@@H](O[C@@H]2O[C@H](C)C[C@H](N(C)C)[C@H]2O)[C@](C)(O)C[C@@H](C)C(=O)[C@H](C)[C@@H](O)[C@]1(C)O", "note": "[EM]", "values": [{"measurement": "survival rate at Day 20 of infection", "setting": "[6]; 1.0 mg/kg/d", "result": 42, "unit": "%"}, {"measurement": "survival rate of mice infected with influenza virus", "setting": "[6]; 3.3 mg/kg/d intraperitoneally, Days 1-6 after infection", "result": "significantly improved"}, {"measurement": "survival rate at Day 20 of infection", "setting": "[6]; 3.3 mg/kg/d", "result": 57, "unit": "%"}]}
{"compound": "Cn1cc2c(-c3ccc(F)cc3)c(-c3ccncc3)c(-c3ccc(F)cc3)nc2n1", "note": "[Formula III]", "values": [{"measurement": "production of IL-8 and IP-10", "setting": "[7]", "result": "attenuate"}, {"measurement": "production of TNFα and IL-8", "setting": "[5]", "result": "attenuate"}, {"measurement": "release of IL-6 and IP-10", "setting": "[8]", "result": "attenuated"}]}
{"compound": "OCCCn1cc2c(-c3ccc(F)cc3)c(-c3ccncc3)c(-c3ccc(F)cc3)nc2n1", "note": "[Formula II]", "values": [{"measurement": "attenuating the inflammatory response in endothelial cells, compared with Formula III", "setting": "[7]", "result": "consistently better effects than the compound of Formula III"}, {"measurement": "production of IL-8 and IP-10", "setting": "[7]", "result": "attenuate"}, {"measurement": "attenuating the inflammatory response in immune cells, compared with Formula III", "setting": "[5]", "result": "consistently better effects than the compound of Formula III"}, {"measurement": "production of MIP-1a and IL-8 (TNFa plus IL-6 as stimulus) and TNFa and IL-8 (A549 virus soup as stimulus)", "setting": "[5]", "result": "attenuate"}]}
{"compound": "C[C@H]1C[C@@H]2[C@H]([C@@H](O)C[C@@]3(C)[C@H]2CC[C@]3(O)C(=O)CO)[C@@]2(C)C=CC(=O)C=C12", "note": "[Methyl Prednisolone]", "values": [{"measurement": "iMax IL1B", "setting": "[1]", "result": 77, "unit": "%"}, {"measurement": "iMax IL6", "setting": "[1]", "result": 57, "unit": "%"}, {"measurement": "iMax IL8", "setting": "[1]", "result": 90, "unit": "%"}, {"measurement": "iMax TNFa", "setting": "[1]", "result": 79, "unit": "%"}, {"measurement": "pIC50", "setting": "[1]; [9]", "result": 8.08}, {"measurement": "pIC50", "setting": "[1]; [10]", "result": 7.44}, {"measurement": "pIC50", "setting": "[1]; [11]", "result": 8.08}, {"measurement": "pIC50", "setting": "[1]; [12]", "result": 7.69}]}
{"compound": "CNC(=O)c1ccc(C)c(-n2c(C)cc(OCc3ccc(F)cc3F)c(Br)c2=O)c1", "note": "[PH797804]", "values": [{"measurement": "iMax IL1B", "setting": "[1]", "result": 79, "unit": "%"}, {"measurement": "iMax IL8", "setting": "[1]", "result": 87, "unit": "%"}, {"measurement": "iMax TNFa", "setting": "[1]", "result": 91, "unit": "%"}, {"measurement": "pIC50", "setting": "[1]; [9]", "result": 8.01}, {"measurement": "pIC50", "setting": "[1]; [11]", "result": 8.64}, {"measurement": "pIC50", "setting": "[1]; [12]", "result": 8.41}, {"measurement": "iMax IL8", "setting": "[7]", "result": 86, "unit": "%"}, {"measurement": "iMax IL10", "setting": "[7]", "result": 88, "unit": "%"}, {"measurement": "iMax MCP1", "setting": "[7]", "result": 36, "unit": "%"}, {"measurement": "pIC50", "setting": "[7]; Homo sapiens, HUVEC, read-out: IC50 IL8", "result": 7.54}, {"measurement": "pIC50", "setting": "[7]; [13]", "result": 8.12}, {"measurement": "pIC50", "setting": "[7]; Homo sapiens, HUVEC, read-out: IC50 MCP1", "result": 7.88}, {"measurement": "induction of both p38MAPK and HSP27 phosphorylation", "setting": "[2]", "result": "dose dependently inhibit"}, {"measurement": "A549 viral soup induced release of TNFα, IL-1-β, IL-6 and CXCL8", "setting": "[5]", "result": "significantly attenuate"}]}
{"compound": "CCc1ccc(CCOc2ccc(CC3SC(=O)NC3=O)cc2)nc1", "note": "(centres unmarked) [Pioglitazone]", "values": [{"measurement": "iMax IL6", "setting": "[1]", "result": 41, "unit": "%"}, {"measurement": "iMax IL8", "setting": "[1]", "result": 37, "unit": "%"}, {"measurement": "pIC50", "setting": "[1]; [10]", "result": 10.70}, {"measurement": "pIC50", "setting": "[1]; [11]", "result": 10.00}]}
{"compound": "CC[C@H](C)C(=O)O[C@H]1C[C@H](O)C=C2C=C[C@H](C)[C@H](CC[C@@H](O)C[C@@H](O)CC(=O)O)[C@H]21", "note": "[Pravastatin]", "values": [{"measurement": "iMax IL10", "setting": "[7]", "result": 35, "unit": "%"}, {"measurement": "pIC50", "setting": "[7]; [13]", "result": 7.11}]}
{"compound": "Nc1ccc2ncnc(NCCc3ccc(Oc4ccccc4)cc3)c2c1", "note": "[QNZ (EVP4593)]", "values": [{"measurement": "iMax IL8", "setting": "[1]", "result": 47, "unit": "%"}, {"measurement": "iMax TNFa", "setting": "[1]", "result": 37, "unit": "%"}, {"measurement": "pIC50", "setting": "[1]; read-out: IC50 IL8", "result": 9.70}, {"measurement": "pIC50", "setting": "[1]; read-out: IC50 TNFa", "result": 7.36}, {"measurement": "iMax IL8", "setting": "[7]", "result": 60, "unit": "%"}, {"measurement": "iMax IL10", "setting": "[7]", "result": 72, "unit": "%"}, {"measurement": "iMax MCP1", "setting": "[7]", "result": 44, "unit": "%"}, {"measurement": "pIC50", "setting": "[7]; read-out: IC50 IL8", "result": 8.19}, {"measurement": "pIC50", "setting": "[7]; read-out: IC50 IL10", "result": 8.48}, {"measurement": "pIC50", "setting": "[7]; read-out: IC50 MCP1", "result": 8.42}]}
{"compound": "COc1cc(F)c(F)c(Nc2ccc(I)cc2F)c1NS(=O)(=O)C1(C[C@H](O)CO)CC1", "note": "[Refametinib]", "values": [{"measurement": "dose-dependent inhibition of IP10 production", "setting": "[7]", "result": "Neither Refametinib nor Selumetinib showed dose-dependent inhibition"}, {"measurement": "levels of IP10 at higher drug concentrations", "setting": "[7]", "result": "appeared to increase"}]}
{"compound": "O=C(Nc1c(Cl)cncc1Cl)c1ccc(OC(F)F)c(OCC2CC2)c1", "note": "[Roflumilast]", "values": [{"measurement": "iMax IL8", "setting": "[1]", "result": 31, "unit": "%"}, {"measurement": "iMax TNFa", "setting": "[1]", "result": 74, "unit": "%"}, {"measurement": "pIC50", "setting": "[1]; [11]", "result": 10.05}, {"measurement": "pIC50", "setting": "[1]; [12]", "result": 7.97}]}
{"compound": "Selumetinib", "values": [{"measurement": "dose-dependent inhibition of IP10 production", "setting": "[7]", "result": "Neither Refametinib nor Selumetinib showed dose-dependent inhibition"}, {"measurement": "levels of IP10 at higher drug concentrations", "setting": "[7]", "result": "appeared to increase"}]}
